Measured values taken from article PMC10355216, “The C-terminal tail of CSNAP attenuates the CSN complex” (Life Science Alliance, 2023).
Where no end group is shown, it is not given here.

Legend:
CSN complex = assay: Reciprocal co-immunoprecipitation (anti-CSN3, anti-GFP) of Cer fusions in HAP1 cells; assay type: cell-based; conditions: peptides fused to Cer expressed in HAP1 cells; anti-CSN3 and anti-GFP pull-downs
Source text: To clarify the ability of C-CSNAP peptides to displace CSNAP in cells, we stably expressed four versions of CSNAP, the 16AA and 20AA C-CSNAP, D42E and scrambled peptides fused to the fluorescent protein Cer in HAP1 cells. As control, we used HAP1 cells expressing Cer only. We then performed reciprocal co-immunoprecipitation analyses, using antibodies against CSN3 and GFP recognizing Cer (Figs 6A and S5). […] This is reflected by the higher intensity of the GFP band upon CSN3 pull down, and by the more intense CSN3 band following GFP co-immunoprecipitation.
(§1) Figure 6. Expression of C-CSNAP reduces cellular proliferation rate. (A) Immunoprecipitation analysis using anti-GFP antibody recognizing cerulean (Cer) from lysates of cells expressing the Cer-fused 16AA, 20AA, D42E, and scrambled C-CSNAP in HAP1 WT cells. The COP9 signalosome complex was pulled down from all cells, except when Cer is expressed alone or fused to the scrambled C-CSNAP. Similarly, reciprocal immunoprecipitation by an anti-CSN3 antibody pulled down only the Cer-fused 16AA, 20AA, or D42E C-CSNAP. (B) Stable overexpression of 16AA and 20AA C-CSNAP–Cer in HAP1 WT cells reduces their rate of proliferation. […] One-way ANOVA (P < 0.05) with Dunnett’s multiple comparisons test was used to compare means *P < 0.05, **P < 0.01.
Figure S5. […]

HAP1 WT cells = assay: Resazurin-based cell proliferation assay; conditions: HAP1 WT cells stably expressing Cer fusions, 24 h after plating, five independent experiments
Source text: as §1, with “0.01. […]” for “0.01.”
HAP1 WT cells stably expressing Cer, 16AA, and 20AA C-CSNAP–Cer were trypsinized and counted. […] Fluorescence intensities at 560/600 nm (ex/em) were measured, and average intensities of four replicates in each plate were calculated, normalized against WT after background subtraction, and normalized values from five independent experiments were compared on a bar graph with SEM. Significance was calculated using repeated measurment one-way ANOVA (P < 0.05) with Dunnett’s multiple comparisons test was used to compare means to Cer as control *P < 0.05, **P < 0.01.

recombinant CSN complex = assay: Peptide array screen of C-CSNAP peptides with recombinant CSN (rCSN^WT); assay type: binding; conditions: for Average fold change, intensities as fold of C-CSNAP (A1): rCSN^WT on INTAVIS Celluspots array, anti-CSN3 and HRP secondary antibody, average of six replicates (three independent experiments in duplicates); for Average fold change: peptide array with rCSN, average of 3 experiments, left and right (n = 6), fold of C-CSNAP (A1);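 for all read-outs here: densitometric signal of CSN bound to each synthesized peptide spot, with an antibody-only array lacking CSN run to exclude non-specific binding, higher values meaning stronger binding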
Method: To generate an optimized C-CSNAP peptide, we used the peptide array methodology. The array was designed to screen for the optimal peptide length, sequence, and stability (Fig 3A). A recombinant CSN complex was expressed, purified, and screened for binding to the peptide array by using an anti-CSN3 antibody. To rule out non-specific binding of the probing antibody, a control experiment was carried out without the addition of the CSN complex (Fig 3A right panel).
C-CSNAP peptide and its derivatives were synthesized on a microarray. The array was blocked and incubated with or without the COP9 signalosome complex (CSN) and probed using an anti-CSN3 antibody and HRP-conjugated secondary antibody. To assess non-specific binding of the antibodies to the array, anti-CSN3 and anti-GAR–HRP were used without the addition of the CSN. Signal intensity of each spot was measured and normalized to the intensity of the spot of C-CSNAP (A1). Measured values for each spot were averaged from six arrays and plotted with SEM. […] (A) A representative image of the peptide array (left) and the background (right). (B) Elongation of the C-terminal 16 amino acids (green) with one residue at a time based on the full-length sequence. […] (F) Single D-amino acid substitution at various positions.
(§2) Intensity values are normalized to the intensity of the 16AA C-CSNAP peptide (A1) on each array from three independent experiments in duplicates, and averages from the six replicates are calculated with SEM.
(§3) Optimization of C-CSNAP sequence for enhanced binding to recombinant CSN^ΔCSNAP was screened by printing the modified sequences of CSNAP or C-CSNAP (Phe to Trp, Asp to Glu, Ala screen, D-amino acid screen, N-α-methylation, and Aib incorporation on INTAVIS Celluspots array [2 × 384spots]). The array was blocked with 5% skim milk in TBS-0.5% Tween 20 (TBS-T) for 4 h at room temperature, washed three times in TBS-T, and then incubated with 0.5 μM CSN^ΔCSNAP in 5% milk–TBS-T. Bound CSN^ΔCSNAP was visualized by incubating with anti-CSN3 (ab79698) antibody (1:10,000, overnight) and goat-anti-rabbit-HRP secondary antibody (1:10,000, 1 h).

CSN^ΔCSNAP complex = assay: Peptide array screen of C-CSNAP peptides with rCSN^ΔCSNAP; assay type: binding; conditions: average of 5 experiments;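 note: Array-printed peptides incubated with 0.5 µM CSN^ΔCSNAP, bound complex detected by anti-CSN3 antibody plus HRP-linked secondary, spot intensity expressed relative to the parent reference peptide spot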
Method: Peptide array screen of modified C-CSNAP peptides. C-CSNAP peptide and its derivatives were printed on a microarray. The array was blocked and incubated with or without the CSN∆CSNAP complex and probed using an anti-CSN3 antibody and HRP-conjugated secondary antibody. To assess non-specific binding of the antibodies to the array, anti-CSN3 and anti-GAR-HRP were used without the addition of the COP9 signalosome complex (CSN). Signal intensity of each spot was measured and normalized to the intensity of the spot of C-CSNAP (A1). Measured values for each spot were averaged from six arrays and plotted with standard errors SEM.
as §2, §3

[1] = peptide array, rCSN^ΔCSNAP, left and right spots
[2] = peptide array with rCSN^ΔCSNAP, left and right (n = 10), fold of C-CSNAP (A1)

Row | Substance | Average fold change, intensities as fold of C-CSNAP (A1) (recombinant CSN complex) | Average fold change (CSN^ΔCSNAP complex; [1]) | Average fold change (recombinant CSN complex) [fold] | other results
1 | 20AA C-CSNAP–Cer: 20AA C-CSNAP fused to the fluorescent protein cerulean (Cer), expressed in HAP1 cells (AVHADFFNDFEDLFDDDDIQ; also: fused to Cerulean, end not given here) | – | – | – | integration into the CSN complex, based on band intensities, in words (CSN complex): highest ability to integrate into CSN; cell proliferation compared with cells expressing only Cer, in words (HAP1 WT cells): significant reductions in cell proliferation
2 | EFFNDFEELFDDDEIQ [Position E12, C-CSNAP, Asp to Glu substitution D42,49,55E] | 0.6694 fold of C-CSNAP (A1) | 0.9711 fold of C-CSNAP (A1) | – | –
3 | EFFNDFEELFEDEDIQ [D42,49,52,54E] | – | 1.0950 fold of C-CSNAP (A1) | 0.7100 | –
4 | EFFNEFEDLFDEDDIQ [E 6, C-CSNAP, Asp to Glu substitution D42,46,53E] | 0.7001 fold of C-CSNAP (A1) | 0.9657 fold of C-CSNAP (A1) | – | –
5 | DFFNDFEDLFEDDEIQ [E 3, C-CSNAP, Asp to Glu substitution D52,55E] | 0.8879 fold of C-CSNAP (A1) | 0.8137 fold of C-CSNAP (A1) | – | –
6 | LMDLAANEKAVHADFFNDFEDLFDDDDIQ [Position A14, CSNAP residues 29-57] | 0.9262 fold of C-CSNAP (A1) | – | – | Average fold change (CSN^ΔCSNAP complex; [2]): 1.0726 fold
7 | DFFNDFEELFEEEDIQ [D49,52,53,54E] | – | 0.9844 fold of C-CSNAP (A1) | 0.6224 | –
8 | KPAVDEMFPEGAGPYVDLDEAGGSTGLLMDLAANEKAVHADFFNDFEDLFDDDDIQ [Position B17, CSNAP residues 2-57] | 1.0902 fold of C-CSNAP (A1) | – | – | Average fold change (CSN^ΔCSNAP complex; [2]): 1.3898 fold
9 | HADFFNDFEDLFDDDDIQ [A 3, CSNAP residues 40-57] | 1.0326 fold of C-CSNAP (A1) | – | – | Average fold change (CSN^ΔCSNAP complex; [2]): 0.8215 fold
10 | DFFNDFEDLFEDEEIQ [D52,53,56E] | – | 1.1721 fold of C-CSNAP (A1) | 0.6027 | –
11 | EFFNEFEELFDDDEIQ [D42,46,49,55E] | – | 0.8257 fold of C-CSNAP (A1) | 0.5938 | –
12 | EFFNDFEDLFEEDEIQ [D42,52,53,55E] | – | 1.0660 fold of C-CSNAP (A1) | 0.6502 | –
13 | DFFNDFEELFDDDEIQ [Position D24, C-CSNAP, Asp to Glu substitution D49,55E] | 0.5347 fold of C-CSNAP (A1) | 1.2175 fold of C-CSNAP (A1) | – | –
14 | DFFNDFEDLFDEDDIQ [D 7, C-CSNAP, Asp to Glu substitution D53E] | 0.9008 fold of C-CSNAP (A1) | 1.1500 fold of C-CSNAP (A1) | – | –
15 | DWFNDWEDLFDDDDIQ [Position C17, C-CSNAP, Phe to Trp substitution F43,47W] | 0.7959 fold of C-CSNAP (A1) | 1.5247 fold of C-CSNAP (A1) | – | –
16 | DFWNDFEDLFDDDDIQ [Position C13, C-CSNAP, Phe to Trp substitution F44W] | 0.8173 fold of C-CSNAP (A1) | 1.2883 fold of C-CSNAP (A1) | – | –
17 | EFFNEFEELFEEEEIQ [D42,46,49,52,53,54,56E] | – | 1.1160 fold of C-CSNAP (A1) | 0.5923 | –
18 | EFFNDFEDLFDEDDIQ [Position D13, C-CSNAP, Asp to Glu substitution D42,53E] | 0.7560 fold of C-CSNAP (A1) | 1.1346 fold of C-CSNAP (A1) | – | –
19 | DFFNEFEELFEDEDIQ [D46,49,52,54E] | – | 0.9254 fold of C-CSNAP (A1) | 0.5934 | –
20 | DFFN-Aib-FEDLF-Aib-DDDIQ-Aib [Position H15, C-CSNAP with Aib incorporation (46,52,58)] | 0.4542 fold of C-CSNAP (A1) | – | – | intensities as fold of C-CSNAP (A1), Experiment #1 left (recombinant CSN complex; rCSN^WT peptide array, replicate: Experiment #1, left array): 0.3458 fold of C-CSNAP (A1); intensities as fold of C-CSNAP (A1), Experiment #1 right (recombinant CSN complex; rCSN^WT peptide array, replicate: Experiment #1, right array): 0.3290 fold of C-CSNAP (A1); intensities as fold of C-CSNAP (A1), Experiment #2 left (recombinant CSN complex; rCSN^WT peptide array, replicate: Experiment #2, left array): 0.2291 fold of C-CSNAP (A1); intensities as fold of C-CSNAP (A1), Experiment #2 right (recombinant CSN complex; rCSN^WT peptide array, replicate: Experiment #2, right array): 0.4652 fold of C-CSNAP (A1); intensities as fold of C-CSNAP (A1), Experiment #3 left (recombinant CSN complex; rCSN^WT peptide array, replicate: Experiment #3, left array): 0.2799 fold of C-CSNAP (A1); intensities as fold of C-CSNAP (A1), Experiment #3 right (recombinant CSN complex; rCSN^WT peptide array, replicate: Experiment #3, right array): 1.0762 fold of C-CSNAP (A1); Average fold change, intensities as fold of C-CSNAP (A1) (CSN^ΔCSNAP complex; [1]): 0.5199 fold
21 | DWWNDWEDLWDDDDIQ [D 2, C-CSNAP, Phe to Trp substitution F43,44,47,51W] | 0.6800 fold of C-CSNAP (A1) | 0.9168 fold of C-CSNAP (A1) | – | –
22 | EMFPEGAGPYVDLDEAGGSTGLLMDLAANEKAVHADFFNDFEDLFDDDDIQ [Position B12, CSNAP residues 7-57] | 0.8904 fold of C-CSNAP (A1) | – | – | Average fold change (CSN^ΔCSNAP complex; [2]): 1.1057 fold
